Measured values from PubChem BioAssay AID270 (DTP/NCI, 2004).
“And” between values parts separate entries of the source, which are not always exact repeats. Equal entries are not always repeated. Inconclusive results are not listed.

Test system: BDF1 mice, s.c. Lewis lung carcinoma, T/C %
Assay: NCI In Vivo Anticancer Drug Screen. Data for tumor model Lewis Lung Carcinoma (subcutaneous) in B6D2F1 (BDF1) mice
Protocol: The antitumor activity of compounds was measured in mice bearing transplantable tumors. Survival or tumor size were measured and the results are expressed as the measurement made in the treated group (T) divided by the measurement made in the vehicle treated control group (C). The tumor model used in this assay is Lewis Lung Carcinoma (subcutaneous) in B6D2F1 (BDF1) mice

[1] = endpoint: median survival time, dose: 2.0 mg/kg/injection, schedule: Q01DX009 (ip), vehicle: saline, higher = longer survival

C[C@]12CC[C@@H]3c4ccccc4CC[C@H]3[C@@H]1CC[C@@H]2O
T/C (endpoint: mean tumor weight, dose: 43.8 mg/kg/injection, schedule: Q01DX011 (sc), vehicle: steriod suspending solution, higher = larger tumour): 71 % of control | T/C (endpoint: mean tumor weight, dose: 87.5 mg/kg/injection, schedule: Q01DX011 (sc), vehicle: steriod suspending solution, higher = larger tumour): 51 % of control | T/C (endpoint: mean tumor weight, dose: 125.0 mg/kg/injection, schedule: Q01DX011 (sc), vehicle: steriod suspending solution, higher = larger tumour): 120 % of control | T/C (endpoint: mean tumor weight, dose: 175.0 mg/kg/injection, schedule: Q01DX011 (sc), vehicle: steriod suspending solution, higher = larger tumour): 56 % of control | T/C (endpoint: mean tumor weight, dose: 250.0 mg/kg/injection, schedule: Q01DX011 (sc), vehicle: steriod suspending solution, higher = larger tumour): 45 % of control and 69 % of control | T/C (endpoint: mean tumor weight, dose: 350.0 mg/kg/injection, schedule: Q01DX011 (sc), vehicle: steriod suspending solution, higher = larger tumour): 32 % of control | T/C (endpoint: mean tumor weight, dose: 400.0 mg/kg/injection, schedule: Q01DX011 (sc), vehicle: steriod suspending solution, higher = larger tumour): 14 % of control | T/C (endpoint: mean tumor weight, dose: 600.0 mg/kg/injection, schedule: Q01DX011 (sc), vehicle: steriod suspending solution, higher = larger tumour): 22 % of control | T/C (endpoint: mean tumor weight, dose: 1000.0 mg/kg/injection, schedule: Q01DX011 (sc), vehicle: steriod suspending solution, higher = larger tumour): 35 % of control and 54 % of control

COc1ccc(CC2C(=O)NC(C)C(=O)N(C)C3C(=O)N(C)C(Cc4ccc(O)c(c4)Oc4ccc(cc4)C3O)C(=O)NC(C)C(=O)NC(C)C(=O)N2C)cc1 (stereo unspecified)
T/C (endpoint: median survival time, dose: 0.25 mg/kg/injection, schedule: Q01DX009 (ip), vehicle: saline, higher = longer survival): 96 % of control | T/C (endpoint: median survival time, dose: 0.5 mg/kg/injection, schedule: Q01DX009 (ip), vehicle: saline, higher = longer survival): 97 % of control | T/C (endpoint: median survival time, dose: 1.0 mg/kg/injection, schedule: Q01DX009 (ip), vehicle: saline, higher = longer survival): 113 % of control | T/C [1]: 87 % of control

CS(=O)(=O)OCCCCCCCCCOS(C)(=O)=O
T/C (endpoint: mean tumor weight, dose: 12.5 mg/kg/injection, schedule: Q01DX011 (ip), vehicle: carboxymethylcellulose (CMC), higher = larger tumour): 104 % of control and 105 % of control | T/C (endpoint: mean tumor weight, dose: 25.0 mg/kg/injection, schedule: Q01DX011 (ip), vehicle: carboxymethylcellulose (CMC), higher = larger tumour): 68 % of control and 84 % of control

Cc1c(N)nc([C@H](CC(N)=O)NC[C@H](N)C(N)=O)nc1C(=O)N[C@H](C(=O)N[C@H](C)[C@@H](O)[C@H](C)C(=O)N[C@H](C(=O)NCCc1nc(-c2nc(C(=O)NCCC[S+](C)C)cs2)cs1)[C@@H](C)O)C(OC1OC(CO)C(O)C(O)C1OC1OC(CO)C(O)C(OC(N)=O)C1O)c1cnc[nH]1 (stereo partly specified)
T/C (endpoint: mean survival time, dose: 4.0 mg/kg/injection, schedule: Q01DX009 (ip), vehicle: saline, higher = longer survival): 111 % of control | T/C (endpoint: mean survival time, dose: 8.0 mg/kg/injection, schedule: Q01DX009 (ip), vehicle: saline, higher = longer survival): 102 % of control | T/C (endpoint: mean survival time, dose: 12.0 mg/kg/injection, schedule: Q01DX009 (ip), vehicle: saline, higher = longer survival): 107 % of control | T/C (endpoint: median survival time, dose: 1.0 mg/kg/injection, schedule: Q01DX009 (ip), vehicle: water, higher = longer survival): 90 % of control | T/C (endpoint: median survival time, dose: 1.7 mg/kg/injection, schedule: Q01DX009 (ip), vehicle: water, higher = longer survival): 94 % of control | T/C [1]: 107 % of control | T/C (endpoint: median survival time, dose: 2.0 mg/kg/injection, schedule: Q01DX009 (ip), vehicle: water, higher = longer survival): 112 % of control | T/C (endpoint: median survival time, dose: 2.9 mg/kg/injection, schedule: Q01DX009 (ip), vehicle: water, higher = longer survival): 94 % of control | T/C (endpoint: median survival time, dose: 3.12 mg/kg/injection, schedule: Q04DX003 (sc), vehicle: saline, higher = longer survival): 90 % of control and 92 % of control | T/C (endpoint: median survival time, dose: 4.0 mg/kg/injection, schedule: Q01DX009 (ip), vehicle: water, higher = longer survival): 94 % of control and 118 % of control | T/C (endpoint: median survival time, dose: 4.0 mg/kg/injection, schedule: Q04DX003 (ip), vehicle: saline, higher = longer survival): 96 % of control and 110 % of control | T/C (endpoint: median survival time, dose: 4.8 mg/kg/injection, schedule: Q01DX009 (ip), vehicle: water, higher = longer survival): 118 % of control | T/C (endpoint: median survival time, dose: 6.25 mg/kg/injection, schedule: Q04DX003 (sc), vehicle: saline, higher = longer survival): 96 % of control | T/C (endpoint: median survival time, dose: 8.0 mg/kg/injection, schedule: Q01DX009 (ip), vehicle: water, higher = longer survival): 102 % of control and 112 % of control | T/C (endpoint: median survival time, dose: 8.0 mg/kg/injection, schedule: Q04DX003 (ip), vehicle: saline, higher = longer survival): 96 % of control and 114 % of control | T/C (endpoint: median survival time, dose: 12.0 mg/kg/injection, schedule: Q01DX009 (ip), vehicle: saline, higher = longer survival): 100 % of control | T/C (endpoint: median survival time, dose: 12.5 mg/kg/injection, schedule: Q04DX003 (sc), vehicle: saline, higher = longer survival): 102 % of control and 108 % of control | T/C (endpoint: median survival time, dose: 16.0 mg/kg/injection, schedule: Q04DX003 (ip), vehicle: saline, higher = longer survival): 84 % of control and 112 % of control | T/C (endpoint: median survival time, dose: 22.2 mg/kg/injection, schedule: Q01DX009 (ip), vehicle: water, higher = longer survival): 82 % of control | T/C (endpoint: median survival time, dose: 25.0 mg/kg/injection, schedule: Q04DX003 (sc), vehicle: saline, higher = longer survival): 98 % of control | T/C (endpoint: median survival time, dose: 32.0 mg/kg/injection, schedule: Q04DX003 (ip), vehicle: saline, higher = longer survival): 50 % of control and 108 % of control | T/C (endpoint: median survival time, dose: 50.0 mg/kg/injection, schedule: Q04DX003 (sc), vehicle: saline, higher = longer survival): 117 % of control and 118 % of control | T/C (endpoint: median survival time, dose: 64.0 mg/kg/injection, schedule: Q04DX003 (ip), vehicle: saline, higher = longer survival): 37 % of control and 97 % of control | T/C (endpoint: median survival time, dose: 100.0 mg/kg/injection, schedule: Q04DX003 (sc), vehicle: saline, higher = longer survival): 116 % of control and 124 % of control | T/C (endpoint: median tumor weight (est.), dose: 2.0 mg/kg/injection, schedule: Q01DX009 (ip), vehicle: saline, higher = larger tumour): 71 % of control | T/C (endpoint: median tumor weight (est.), dose: 2.0 mg/kg/injection, schedule: Q01DX009 (ip), vehicle: water, higher = larger tumour): 34 % of control | T/C (endpoint: median tumor weight (est.), dose: 4.0 mg/kg/injection, schedule: Q01DX009 (ip), vehicle: saline, higher = larger tumour): 77 % of control | T/C (endpoint: median tumor weight (est.), dose: 4.0 mg/kg/injection, schedule: Q01DX009 (ip), vehicle: water, higher = larger tumour): 24 % of control | T/C (endpoint: median tumor weight (est.), dose: 8.0 mg/kg/injection, schedule: Q01DX009 (ip), vehicle: saline, higher = larger tumour): 34 % of control | T/C (endpoint: median tumor weight (est.), dose: 8.0 mg/kg/injection, schedule: Q01DX009 (ip), vehicle: water, higher = larger tumour): 8 % of control | T/C (endpoint: median tumor weight (est.), dose: 16.0 mg/kg/injection, schedule: Q01DX009 (ip), vehicle: saline, higher = larger tumour): 26 % of control
